Here are results for two compounds from patent publication US20200377496A1, “INDOLE AND BENZIMIDAZOLE DERIVATIVES AS DUAL 5-HT2A and 5-HT6 RECEPTOR ANTAGONISTS” (ADAMED PHARMA, S.A., priority 2018, published 2020).

The Ki is a dissociation constant, usually derived from enzyme kinetics or from competition with a known ligand. Usually Kb stands for the affinity of an antagonist, worked out from how it opposes an agonist.

Test [1] deals with human 5-HT2A receptor (Homo sapiens, UniProt P28223). Nature of the test: 5-HT2A receptor binding assay ([3H]-ketanserin radioligand). Here is the method: (§1) Preparation of Solutions of Test and Reference Compounds.
Sequence of human 5-HT2A receptor (P28223 whole entry): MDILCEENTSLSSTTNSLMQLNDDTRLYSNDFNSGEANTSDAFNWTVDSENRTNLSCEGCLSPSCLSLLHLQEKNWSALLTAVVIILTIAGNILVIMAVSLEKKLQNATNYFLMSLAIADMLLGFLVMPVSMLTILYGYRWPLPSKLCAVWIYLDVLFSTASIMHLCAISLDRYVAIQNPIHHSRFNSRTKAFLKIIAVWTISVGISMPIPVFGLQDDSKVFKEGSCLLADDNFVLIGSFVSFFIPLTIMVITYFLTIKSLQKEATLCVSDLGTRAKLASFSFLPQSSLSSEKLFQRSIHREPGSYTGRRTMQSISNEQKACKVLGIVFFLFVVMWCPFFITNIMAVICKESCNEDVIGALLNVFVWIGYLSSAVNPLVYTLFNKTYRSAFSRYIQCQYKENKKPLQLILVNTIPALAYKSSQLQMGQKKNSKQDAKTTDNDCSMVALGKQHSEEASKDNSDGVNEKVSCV
1 mM stock solutions of tested compounds were prepared in DMSO. Serial dilutions of compounds were prepared in 96-well microplate in assay buffers using automated pipetting system epMotion 5070 (Eppendorf). Each compound was tested in 10 concentrations from 1.0E-6 to 1.0E-11 M (final concentration).
5-HT2A Receptor Binding Assay.
Radioligand binding was performed using membranes from CHO K1 cells stably transfected with the human 5-HT2A receptor (PerkinElmer). All assays were carried out in duplicates. 50 μl working solution of the tested compounds, 50 μl [3H]-ketanserin (final concentration 1 nM) and 150 μl diluted membranes (7 μg protein per well) prepared in assay buffer (50 mM Tris, pH 7.4, 4 mM CaCl2, 0.1% ascorbic acid) were transferred to polypropylene 96-well microplate using 96-wells pipetting station Rainin Liquidator (MettlerToledo). Mianserin (10 μM) was used to define nonspecific binding. Microplate was covered with a sealing tape, mixed and incubated for 60 minutes at 27° C. The reaction was terminated by rapid filtration through GF/B filter mate presoaked with 0.5% polyethyleneimine for 30 minutes. Ten rapid washes with 200 μl 50 mM Tris buffer (4° C., pH 7.4) were performed using automated harvester system Harvester-96 MACH III FM (Tomtec). The filter mates were dried at 37° C. in forced air fan incubator and then solid scintilator MeltiLex was melted on filter mates at 90° C. for 5 minutes. Radioactivity was counted in MicroBeta2 scintillation counter (PerkinElmer). Data were fitted to a one-site curve-fitting equation with Prism 6 (GraphPad Software) and Ki values were estimated from the Cheng-Prusoff equation.

Test [2] concerns the target human GPCR 5-HT6 (Homo sapiens, UniProt P50406). Briefly: Cellular aequorin-based functional assay, 5-HT6. The format is cell-based. Conditions: for 5-HT6 AGO EC50 [nM]: agonist mode, CHO-K1 aequorin cells; for Kb: antagonist mode, reference agonist serotonin 40 nM (EC80), read-out: 5-HT6 ANT Kb. As for the experimental part:
as §1
1 mM stock solutions of the tested compounds were prepared in DMSO. Serial dilutions were prepared in 96-well microplate in assay buffers using automated pipetting system epMotion 5070 (Eppendorf). Two independent experiments in duplicates were performed and 6 to 10 concentrations were tested.
5-HT2A and 5-HT6 Functional Activity Assays.
Cellular aequorin-based functional assays were performed with γ-irradiated recombinant CHO-K1 cells expressing mitochondrially-targeted Aequorin, human GPCR (5-HT2A or 5-HT6) and the promiscuous G protein α16 (PerkinElemer). Assays were performed according to the standard protocol provided by the manufacturer. After thawing, cells were transferred to assay buffer (DMEM/HAM's F12 with 0.1% protease-free BSA) and centrifuged. Cell pellet was resuspended in assay buffer and coelenterazine h was added at final concentrations of 5 μM. Cell suspension was incubated at 21° C., protected from light with constant agitation, for 4 hours and then diluted with assay buffer to a concentration of 250,000 cells/ml. After 1 hour incubation 50 yl cell suspension was dispensed using automatic injectors built in radiometric and luminescence plate counter MicroBeta2 LumiJET (PerkinElmer, USA) into white opaque 96-well microplate preloaded with tested compounds. Immediate light emission generated following calcium mobilization was recorded for 30-60 seconds. In antagonist mode, after 15-30 minutes incubation reference agonist was added to the above assay mix and light emission was recorded again. Final concentration of reference agonist was equal EC80: serotonin 40 nM for 5-HT6 receptor and α-methylserotonin 30 nM for 5-HT2A receptor. The assays were performed in the agonist mode (5-HT6 AGO and 5-HT2A AGO) as well as antagonist mode (5-HT6 ANT and 5-HT2A ANT).
IC50 and EC50 were determined by non-linear regression analysis using GraphPad Prism 6.0 software. The log IC50 was used to obtain the Kb by applying the Cheng-Prusoff approximation.

Test [3] deals with scopolamine-induced deficits in learning and memory. Briefly: Scopolamine-induced deficits in step-through passive avoidance test in Wistar rats. Conditions: hydrochloride salt p.o. 180 min before training; scopolamine 0.3 mg/kg i.p.; male Wistar rats. The format is in vivo. As for the experimental part:
Biological Example 4. Effects of Compounds 1 and 17, on Scopolamine-Induced Deficits in Learning and Memory in the Passive Avoidance Test in Wistar Rats
Drug-naive male Wistar rats (Charles River, Sulzfeld, Germany) were used. Rats were housed four per standard plastic cage and kept in a room with constant environmental conditions (22±1° C., relative humidity 60%, a 12:12 light-dark cycle with lights on at 7:00 a.m.). Animals were supplied by the breeder 2-3 weeks before the onset of behavioral procedures. During this time, the subjects were weighted and handled several times. […]
Effects of tested compounds on learning and memory function were evaluated using a step-through passive avoidance test (Ishiyama et al., 2007). […]
In the training (acquisition) session, the animals were individually placed in the lighted compartment and allowed to explore it freely for 10 s. The sliding door was then opened, and the step-through latency for animals to enter the dark compartment was measured with a 300-s cut-off time. […]
The test (expression) session was performed 24 h after the training session using the same paradigm but without any foot-shock or drug injections. Step-through latencies for animals to enter the dark compartment were measured with a 300-s cut-off time. […]
Body weights (g) and training/test latencies (s) were analyzed with the aid of a one-way analysis of variance (ANOVA). […]

Where two headings read alike, the source gives them in different places.

Sequence of human GPCR 5-HT6 (P50406 whole entry): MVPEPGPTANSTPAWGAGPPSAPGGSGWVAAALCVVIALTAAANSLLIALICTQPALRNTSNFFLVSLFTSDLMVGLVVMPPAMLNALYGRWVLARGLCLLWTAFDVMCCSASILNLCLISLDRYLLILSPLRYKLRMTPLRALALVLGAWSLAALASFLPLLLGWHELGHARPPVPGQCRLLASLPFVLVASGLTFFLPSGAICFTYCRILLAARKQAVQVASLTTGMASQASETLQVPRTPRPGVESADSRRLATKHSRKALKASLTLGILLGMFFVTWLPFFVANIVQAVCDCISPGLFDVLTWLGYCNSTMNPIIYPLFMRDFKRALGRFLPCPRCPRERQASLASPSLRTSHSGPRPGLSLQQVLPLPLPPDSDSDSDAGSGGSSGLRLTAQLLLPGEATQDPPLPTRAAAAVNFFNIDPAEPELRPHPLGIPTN

Take `FC(F)(F)c1nc2c(N3CCNCC3)cccc2n1Cc1ccccc1` [Compound 1, 1-benzyl-4-(piperazin-1-yl)-2-(trifluoromethyl)-1H-benzimidazole]: the Ki in test [1] (membranes from CHO K1 cells with human 5-HT2A receptor, [3H]-ketanserin 1 nM, read-out: 5-HT2A Ki) was determined as 4.2 nM. Further, in test [2], the “5-HT6 AGO EC50 [nM]” value is reported as “N.C” and the Kb came to 2.5 nM. In addition, in test [3], the “minimal effective dose, elongation of step-through latencies in test session” value came out at 3.0 mg/kg.
In test [1], `FC(F)(F)c1cc2c(N3CCNCC3)cccc2n1Cc1ccco1` [Compound 17, 1-(furan-2-ylmethyl)-4-(piperazin-1-yl)-2-(trifluoromethyl)-1H-indole] yielded an inhibition constant Ki of 1.6 nM. For the same compound, in test [2], the “5-HT6 AGO EC50 [nM]” value was “N.C” and the Kb is 0.47 nM. Moreover, the “minimal effective dose, elongation of step-through latencies in test session” value in test [3] turned out to be 1.0 mg/kg.
